# Source: patent US20200390755A1, “COMPOUND FOR TREATING NERVOUS SYSTEM DISEASES AND USE THEREOF” (SHAANXI MICOT TECHNOLOGY CO., LTD., priority 2018, published 2020)
# Key:
# N171-82Q HD mice [1] = assay: Slope balance beam experiment, HD mice; assay type: in vivo, mouse; conditions: 5 mg/kg/d intragastric
# Method: (§1) 7-week-old N171-82Q HD male mice were paired with female B6C3F1/J hybrid mice to obtain newborn mice. From 21 days of age, male mice were housed in separate cages. 0.5 cm of mouse tail tissue was removed to extract DNA to determine the genotype of the mouse, such that N171-82Q HD mice and WT mice needed for the experiment were obtained. The mice were randomly divided into WT Vehicle group (normal mice), WT test compound group (administration group of normal mice, 5 mg/kg/d, n=10), HD Vehicle group (blank group of HD mice, n=15), HD test compound group (administration groups 1-5 of HD mice, 5 mg/kg/d, n=10). The test compound was suspended in 1% CMC-Na solution and administered by intragastric administration until the end of the study. The weights of the mice were measured every week. Behavioral tests were performed at 12 weeks, 18 weeks, and 24 weeks of age to investigate motor function. At 20 weeks, 3 samples of tissue from each group were used for western blotting and immunohistochemistry. At 24 weeks, MRI scans were performed. At the end of the study, the effect of the test compound on the mortality of mice was evaluated.
# (§2) The software Sigmaplot 13.0 was used for statistical analysis of the data, and the data of each group was expressed as mean standard error (x±SEM). Behavioral test results were analyzed using two-way (genotype and processing factor) ANOVA and post-ho tests, the comparison and statistics of weight data were performed using two-way (genotype and age) ANOVA of repeated measures, and mortality was counted using Kaplan-Meier method. Other measurement data were analyzed by one-way ANOVA. P<0.05 was considered statistically significant.
# (§3) The motor function of mice was evaluated by the rotarod experiment and three types of balance beam experiments. The shorter the time for mouse to cross the balance beam, and the longer the time to drop, the stronger the coordination ability of the mouse.
# (§4) A square balance beam with a length of 100 cm and a width of 11 mm was placed at a 45-degree angle to the horizontal ground. A black box (12×12×12 cm) was placed at the end of the balance beam, and the starting platform was illuminated by bright lights. Spacers were placed under the balance beam to provide cushioning in case that the animal falls off the beam. One hour before the test, the mice were trained to cross the beam three times at one-eighth, one-quarter, and full-length distances from the black box, respectively. If the mice stopped walking during training, they were gently pressed with long forceps on the tail to encourage movement. After the training experiment, the mice rested for at least one hour in an undisturbed environment. In the experiment, the maximum time for each mouse to cross the balance beam was set to 60 seconds. If the time for crossing the beams was greater than 60 seconds, it was recorded as 60 seconds.
# [2] = system: rats with permanent cerebral ischemia; assay: Neurobehavioral scoring in rats with permanent cerebral ischemia (MCAO thread plug); assay type: in vivo, SD rats; conditions: 20 mg/kg by gavage
# Method: SD rats, male, about 220-250 g, were provided by the Experimental Animal Center of Medical College of Xi'an Jiaotong University. Rats were randomly divided into groups of 14 animals/group. The experiment included a sham group, a model group, a positive control Edaravone group and test compound groups 1-5.12 hours before the operation, the rats were fasted and were free to drink water, and then used for the modeling method of middle cerebral artery occlusion with thread plug. The rats were fixed on a wooden board after anesthesia, the common carotid artery was ligated proximally, the external carotid artery was ligated distally, and the main internal carotid artery into skull was retained. A ligature line was reserved at the bifurcation of the internal carotid artery for temporarily clamping the distal end of the internal carotid artery using an arterial clip. A 3-0 nylon thread with a length of 5 cm and a spherical shape with a diameter of 0.3 mm at the tip was inserted into the common carotid artery through a small incision at the bifurcation. The arterial clamp was loosened, and the thread plug was slowly advanced to 18˜20 mm. When there was resistance, the progress of the thread was stopped. At this time, the nylon thread plug entered the middle artery and blocked the blood flow, and then the ischemic phase began. The skin was sutured. In the sham operation group, the same procedure was executed, except that no thread plug was inserted.
# Administering was performed at 0 h, 3 h, 6 h and 12 h after ischemia, and then administering was performed once a day for 7 consecutive days. The test compound was prepared into a 4 mg/mL solution with 1% CMC-Na solution and administered by gavage. The edaravone group received an intravenous dose of 0.078 mg/kg.
# 2) The rats were lifted at its tail about 1 foot off the ground to observe the condition of both forelimbs. The rats were placed on a level ground and pushed on both shoulders to observe the difference in resistance on both sides. The rats were placed on the ground to observe the walking. The assessment was conducted using a five-grade four-point scoring method (0 to 4 points). The higher the score, the more severe the neurobehavioral damage.
# 0 point: the behavior is completely normal;
# 1 point: when the rat is lifted at its tail off the ground, the forelimb on the opposite side of the operation rotates and folds inwardly.
# 2 points: when the rat is placed on a level ground and pushed on both shoulders to observe the difference in resistance on both sides, the resistance on the opposite side of the operation reduces;
# 3 points: when the rat is placed on the ground to the walking, it circles around the opposite side of the operation;
# 4 points: The injury is so severe that the rat is unable to move independently.
# (2) Statistical analysis of data: SPSS18.0 statistical software was used for statistical analysis and the data of each group was expressed as the mean standard error (x±SEM). One-way ANOVA and multiple comparisons between groups were used to compare the averages of measurement data among multiple groups. Rank score test was used for behavioral grading data, and Kaplan-Meier method was used for mortality. P<0.05 was considered statistically significant.
# N171-82Q HD mice [3] = assay: High-altitude balance beam (11 mm) experiment 1, HD mice; assay type: in vivo, mouse; conditions: 5 mg/kg/d intragastric
# Method: as §1, §2, §3, §4
# a round balance beam with a length of 80 cm and a diameter of 11 mm was place at a height of about 50 cm from the ground. The following steps are the same as the slope balance beam experiment.
# N171-82Q HD mice [4] = assay: High-altitude balance beam (5 mm) experiment 2, HD mice; assay type: in vivo, mouse; conditions: 5 mg/kg/d intragastric
# Method: as §1, §2, §3, §4
# a square balance beam with a length of 80 cm and a width of 5 mm was place at a height of about 50 cm from the ground. The following steps are the same as the slope balance beam experiment.
# N171-82Q HD mice [5] = assay: Rotarod experiment, HD mice; assay type: in vivo, mouse; conditions: 5 mg/kg/d intragastric
# Method: as §1, §2, §3
# The maximum time for mice fatigue rotarod was set to 5 minutes, and the acceleration was set from 4 rpm up to 40 rpm. Time record was began when the mouse was placed on the rotarod. The time the mouse remained on the rod, i.e., drop latent period, was recorded to indicate its motor coordination ability. One day before the rotarod experiment, each mouse was trained for 5 minutes, and then rested in the cage after the training session. On the day of the experiment, the mice were placed on the rotating rotarod for three rounds of tests, with a 30-minute rest between tests before entering the next round of test. The result was the average of the three tests.
Structure (SMILES),"Time for crossing the beams, slope balance beam (N171-82Q HD mice [1]; 12 w) [s]","Time for crossing the beams, slope balance beam (N171-82Q HD mice [1]; 18 w) [s]","Time for crossing the beams, slope balance beam (N171-82Q HD mice [1]; 24 w) [s]",Neurobehavioral score (0 to 4 points) ([2]; 6 h after ischemia),Neurobehavioral score (0 to 4 points) ([2]; 1 d after ischemia),Neurobehavioral score (0 to 4 points) ([2]; 2 d after ischemia),Neurobehavioral score (0 to 4 points) ([2]; 3 d after ischemia),Neurobehavioral score (0 to 4 points) ([2]; 4 d after ischemia),Neurobehavioral score (0 to 4 points) ([2]; 5 d after ischemia),Neurobehavioral score (0 to 4 points) ([2]; 6 d after ischemia),Neurobehavioral score (0 to 4 points) ([2]; 7 d after ischemia),"Time for crossing the beams, high-altitude balance beam (11 mm) (N171-82Q HD mice [3]; 12 w) [s]","Time for crossing the beams, high-altitude balance beam (11 mm) (N171-82Q HD mice [3]; 18 w) [s]","Time for crossing the beams, high-altitude balance beam (11 mm) (N171-82Q HD mice [3]; 24 w) [s]","Time for crossing the beams, high-altitude balance beam (5 mm) (N171-82Q HD mice [4]; 12 w) [s]","Time for crossing the beams, high-altitude balance beam (5 mm) (N171-82Q HD mice [4]; 18 w) [s]","Time for crossing the beams, high-altitude balance beam (5 mm) (N171-82Q HD mice [4]; 24 w) [s]","Time to drop (drop latent period), rotarod (N171-82Q HD mice [5]; 12 w) [s]","Time to drop (drop latent period), rotarod (N171-82Q HD mice [5]; 18 w) [s]","Time to drop (drop latent period), rotarod (N171-82Q HD mice [5]; 24 w) [s]"
"CN(C)C1CCN(c2ccc(-c3cc(=O)c4ccc(O)c(O)c4o3)cc2)CC1 [Example 3, 2-(4-(4-(dimethylamino)piperidin-1-yl)phenyl)-7,8-dihydroxy-4H-chromen-4-one]",13.64 ± 6.90,14.37 ± 5.81,15.43 ± 4.58,1.98 ± 0.25,2.23 ± 0.34,1.91 ± 0.26,1.87 ± 0.33,1.74 ± 0.26,1.63 ± 0.20,1.78 ± 0.34,1.01 ± 0.27,7.94 ± 1.64,8.15 ± 1.96,8.38 ± 3.78,12.20 ± 4.45,12.99 ± 4.72,13.11 ± 5.30,94.15 ± 30.15,103.40 ± 37.86,90.06 ± 33.45
"CC1(C)CCN(c2ccc(-c3cc(=O)c4ccc(O)c(O)c4o3)cc2)CC1 [Example 4, 2-(4-(4,4-dimethylpiperidin-1-yl)phenyl)-7,8-dihydroxy-4H-chromen-4-one]",16.78 ± 5.98,17.00 ± 5.65,18.38 ± 5.10,2.23 ± 0.36,1.99 ± 0.36,1.85 ± 0.45,2.23 ± 0.36,1.54 ± 0.27,1.78 ± 0.11,1.68 ± 0.27,1.12 ± 0.23,8.57 ± 2.12,8.99 ± 2.29,9.38 ± 2.94,13.22 ± 4.59,13.88 ± 5.63,15.92 ± 7.87,95.09 ± 27.23,99.86 ± 30.27,79.15 ± 34.17
